Laboratory results as given in US20200339625A1, “NOVEL RADIOMETAL-BINDING COMPOUNDS FOR DIAGNOSIS OR TREATMENT OF PROSTATE SPECIFIC MEMBRANE ANTIGEN-EXPRESSING CANCER” (PROVINCIAL HEALTH SERVICES AUTHORITY, priority 2017, published 2020).
Blank lines part the entries; values can stand above or below the molecule they belong to.

Key:
[1] = system: mice bearing PSMA-expressing LNCAP cancer xenografts; assay: Biodistribution of 68Ga-labeled compounds; format: in vivo
Protocol: (§1) Imaging and biodistribution experiments were performed using NODSCID 1L2RyKO male mice. Mice were anesthetized by inhalation with 2% isoflurane in oxygen, and implanted subcutaneously with 1×10^7 LNCaP cells behind left shoulder. Mice were imaged or used in biodistribution studies when the tumor grew up to reach 5-8 mm in diameter during 5-6 weeks.
For biodistribution studies, the mice were injected with the radiotracer as described above. At predetermined time points (1 or 3 h), the mice was anesthetized with 2% isoflurane inhalation, and euthanized by CO2 inhalation. Blood was withdrawn immediately from the heart, and the organs/tissues of interest were collected. The collected organs/tissues were weighed and counted using an automatic gamma counter. The uptake in each organ/tissue was normalized to the injected dose using a standard curve, and expressed as the percentage of the injected dose per gram of tissue (% ID/g).

[2] = system: mice bearing LNCaP tumor xenografts; assay: PET/CT imaging of 68Ga-labeled compounds; format: in vivo
Protocol: 2.17 PET/CT Imaging and Biodistribution
as §1
PET imaging experiments were conducted using Siemens Inveon micro PET/CT scanner. Each tumor bearing mouse was injected 6-8 MBq of 68Ga-labeled tracer through the tail vein under anesthesia (2% isoflurane in oxygen). The mice were allowed to recover and roam freely in their cage. After 50 min, the mice were sedated again with 2% isoflurane in oxygen inhalation and positioned in the scanner. A 10-min CT scan was conducted first for localization and attenuation correction after segmentation for reconstructing the PET images. Then, a 10-min static PET imaging was performed to determined uptake in tumor and other organs. The mice were kept warm by a heating pad during acquisition. For imaging studies acquired at 3 h post-injection (p.i.), the mice were placed in the micro PET/CT scanner at 170 min p.i. Then, the CT acquisitions were conducted as described above, a 15-min static PET imaging was performed to determined uptake in tumor and other organs.

Adrenal glands uptake ([1]; 1 h post-injection): 8.90 ± 2.56 % ID/g | Blood uptake ([1]; 1 h post-injection): 1.43 ± 0.30 % ID/g | Bone uptake ([1]; 1 h post-injection): 1.29 ± 0.45 % ID/g | Brain uptake ([1]; 1 h post-injection): 0.10 ± 0.05 % ID/g | Fat uptake ([1]; 1 h post-injection): 2.06 ± 0.59 % ID/g | Heart uptake ([1]; 1 h post-injection): 1.82 ± 0.21 % ID/g | Intestine uptake ([1]; 1 h post-injection): 1.14 ± 0.18 % ID/g | Kidneys uptake ([1]; 1 h post-injection): 170 ± 26.4 % ID/g | Lacrimal uptake ([1]; 1 h post-injection): 2.44 ± 1.79 % ID/g | Liver uptake ([1]; 1 h post-injection): 1.38 ± 0.25 % ID/g | Lungs uptake ([1]; 1 h post-injection): 4.32 ± 0.62 % ID/g | Muscle uptake ([1]; 1 h post-injection): 0.75 ± 0.09 % ID/g | Pancreas uptake ([1]; 1 h post-injection): 1.47 ± 0.16 % ID/g | Salivary uptake ([1]; 1 h post-injection): 4.99 ± 0.88 % ID/g | Seminal uptake ([1]; 1 h post-injection): 1.03 ± 0.27 % ID/g | Spleen uptake ([1]; 1 h post-injection): 8.95 ± 3.22 % ID/g | Stomach uptake ([1]; 1 h post-injection): 0.41 ± 0.11 % ID/g | Tail uptake ([1]; 1 h post-injection): 1.36 ± 0.45 % ID/g | Testes uptake ([1]; 1 h post-injection): 1.34 ± 0.22 % ID/g | Thyroid uptake ([1]; 1 h post-injection): 2.48 ± 0.44 % ID/g | Tumor uptake ([1]; 1 h post-injection): 23.1 ± 6.11 % ID/g | Tumor:Blood ratio ([1]; 1 h post-injection): 17.3 ± 7.24 | Tumor:Muscle ratio ([1]; 1 h post-injection): 31.6 ± 12.1 | Tumor:kidney ratio ([1]; 1 h post-injection): 0.14 ± 0.04 | Urine uptake ([1]; 1 h post-injection): 173 ± 93.01 % ID/g | Adrenal glands uptake ([1]; 3 h post-injection): 4.04 ± 1.20 % ID/g | Blood uptake ([1]; 3 h post-injection): 0.83 ± 0.27 % ID/g | Bone uptake ([1]; 3 h post-injection): 0.98 ± 0.40 % ID/g | Brain uptake ([1]; 3 h post-injection): 0.06 ± 0.02 % ID/g | Fat uptake ([1]; 3 h post-injection): 1.06 ± 0.20 % ID/g | Heart uptake ([1]; 3 h post-injection): 0.93 ± 0.17 % ID/g | Intestine uptake ([1]; 3 h post-injection): 0.67 ± 0.09 % ID/g | Kidneys uptake ([1]; 3 h post-injection): 121 ± 37.6 % ID/g | Lacrimal uptake ([1]; 3 h post-injection): 2.82 ± 3.84 % ID/g | Liver uptake ([1]; 3 h post-injection): 0.82 ± 0.15 % ID/g | Lungs uptake ([1]; 3 h post-injection): 2.14 ± 0.39 % ID/g | Muscle uptake ([1]; 3 h post-injection): 0.40 ± 0.06 % ID/g | Pancreas uptake ([1]; 3 h post-injection): 0.71 ± 0.12 % ID/g | Salivary uptake ([1]; 3 h post-injection): 2.11 ± 0.57 % ID/g | Seminal uptake ([1]; 3 h post-injection): 4.56 ± 9.00 % ID/g | Spleen uptake ([1]; 3 h post-injection): 4.19 ± 1.58 % ID/g | Stomach uptake ([1]; 3 h post-injection): 0.26 ± 0.06 % ID/g | Tail uptake ([1]; 3 h post-injection): 0.86 ± 0.73 % ID/g | Testes uptake ([1]; 3 h post-injection): 0.89 ± 0.12 % ID/g | Thyroid uptake ([1]; 3 h post-injection): 1.19 ± 0.23 % ID/g | Tumor uptake ([1]; 3 h post-injection): 28.2 ± 9.17 % ID/g | Tumor:Blood ratio ([1]; 3 h post-injection): 36.6 ± 15.4 | Tumor:Muscle ratio ([1]; 3 h post-injection): 73.8 ± 30.9 | Tumor:kidney ratio ([1]; 3 h post-injection): 0.26 ± 0.13 | Urine uptake ([1]; 3 h post-injection): 171 ± 93.3 % ID/g | change of tumor uptake from 1 h to 3 h post-injection ([2]; PET/CT images): increases from 1 h to 3 h post-injection | excretion pathway ([2]; PET/CT images): excreted mainly via the renal pathway | tumor uptake (qualitative comparison) ([2]; PET/CT images, compounds of FIG. 13): highest tumor uptake
SMILES: O=C([O-])CN1CCN(CC(=O)[O-])CCN(CC(=O)NCC2CCC(C(=O)NC(Cc3c4ccccc4cc4ccccc34)C(=O)NCCCCC(NC(=O)NC(CCC(=O)O)C(=O)O)C(=O)O)CC2)CCN(CC(=O)[O-])CC1.[68Ga+3] (stereo not drawn) [^68Ga-HTK03041]

Adrenal glands uptake ([1]; 1 h post-injection): 5.51 ± 1.56 % ID/g | Blood uptake ([1]; 1 h post-injection): 22.1 ± 2.04 % ID/g | Bone uptake ([1]; 1 h post-injection): 1.59 ± 0.44 % ID/g | Brain uptake ([1]; 1 h post-injection): 0.29 ± 0.04 % ID/g | Fat uptake ([1]; 1 h post-injection): 2.20 ± 0.41 % ID/g | Heart uptake ([1]; 1 h post-injection): 5.20 ± 0.59 % ID/g | Intestine uptake ([1]; 1 h post-injection): 1.52 ± 0.21 % ID/g | Kidneys uptake ([1]; 1 h post-injection): 31.1 ± 4.40 % ID/g | Lacrimal uptake ([1]; 1 h post-injection): 1.82 ± 1.46 % ID/g | Liver uptake ([1]; 1 h post-injection): 3.35 ± 1.08 % ID/g | Lungs uptake ([1]; 1 h post-injection): 8.37 ± 1.10 % ID/g | Muscle uptake ([1]; 1 h post-injection): 1.60 ± 0.19 % ID/g | Pancreas uptake ([1]; 1 h post-injection): 2.02 ± 0.32 % ID/g | Salivary uptake ([1]; 1 h post-injection): 3.87 ± 0.70 % ID/g | Seminal uptake ([1]; 1 h post-injection): 1.19 ± 0.18 % ID/g | Spleen uptake ([1]; 1 h post-injection): 3.05 ± 0.63 % ID/g | Stomach uptake ([1]; 1 h post-injection): 0.62 ± 0.09 % ID/g | Tail uptake ([1]; 1 h post-injection): 4.42 ± 0.76 % ID/g | Testes uptake ([1]; 1 h post-injection): 2.54 ± 0.34 % ID/g | Thyroid uptake ([1]; 1 h post-injection): 4.20 ± 0.53 % ID/g | Tumor uptake ([1]; 1 h post-injection): 17.2 ± 1.67 % ID/g | Tumor:Blood ratio ([1]; 1 h post-injection): 0.78 ± 0.04 | Tumor:Muscle ratio ([1]; 1 h post-injection): 10.8 ± 1.15 | Tumor:kidney ratio ([1]; 1 h post-injection): 0.56 ± 0.06 | Urine uptake ([1]; 1 h post-injection): 14.6 ± 10.9 % ID/g | Adrenal glands uptake ([1]; 3 h post-injection): 6.45 ± 1.03 % ID/g | Blood uptake ([1]; 3 h post-injection): 17.4 ± 1.15 % ID/g | Bone uptake ([1]; 3 h post-injection): 2.11 ± 0.62 % ID/g | Brain uptake ([1]; 3 h post-injection): 0.28 ± 0.06 % ID/g | Fat uptake ([1]; 3 h post-injection): 2.12 ± 0.69 % ID/g | Heart uptake ([1]; 3 h post-injection): 3.89 ± 0.40 % ID/g | Intestine uptake ([1]; 3 h post-injection): 1.29 ± 0.18 % ID/g | Kidneys uptake ([1]; 3 h post-injection): 35.6 ± 7.23 % ID/g | Lacrimal uptake ([1]; 3 h post-injection): 4.14 ± 3.82 % ID/g | Liver uptake ([1]; 3 h post-injection): 2.96 ± 0.56 % ID/g | Lungs uptake ([1]; 3 h post-injection): 7.50 ± 1.05 % ID/g | Muscle uptake ([1]; 3 h post-injection): 1.26 ± 0.18 % ID/g | Pancreas uptake ([1]; 3 h post-injection): 1.74 ± 0.30 % ID/g | Salivary uptake ([1]; 3 h post-injection): 3.57 ± 1.07 % ID/g | Seminal uptake ([1]; 3 h post-injection): 1.07 ± 0.12 % ID/g | Spleen uptake ([1]; 3 h post-injection): 3.07 ± 0.78 % ID/g | Stomach uptake ([1]; 3 h post-injection): 0.59 ± 0.13 % ID/g | Tail uptake ([1]; 3 h post-injection): 3.52 ± 0.65 % ID/g | Testes uptake ([1]; 3 h post-injection): 2.63 ± 0.49 % ID/g | Thyroid uptake ([1]; 3 h post-injection): 3.40 ± 0.56 % ID/g | Tumor uptake ([1]; 3 h post-injection): 30.1 ± 3.12 % ID/g | Tumor:Blood ratio ([1]; 3 h post-injection): 1.75 ± 0.28 | Tumor:Muscle ratio ([1]; 3 h post-injection): 24.5 ± 5.08 | Tumor:kidney ratio ([1]; 3 h post-injection): 0.88 ± 0.22 | Urine uptake ([1]; 3 h post-injection): 33.8 ± 22.3 % ID/g | change of tumor uptake from 1 h to 3 h post-injection ([2]; PET/CT images): uptake in tumors increases over time | blood retention (qualitative) ([2]; PET/CT images at 1 h and 3 h post-injection, comparison within the figure): some extent of blood retention
SMILES: O=C([O-])CN1CCN(CC(=O)[O-])CCN(CC(=O)NCCCC[C@H](NC(=O)CNC(=O)CCCc2ccc(Cl)cc2)C(=O)NC[C@H]2CC[C@H](C(=O)N[C@@H](Cc3ccc4ccccc4c3)C(=O)NCCCC[C@H](NC(=O)N[C@@H](CCC(=O)O)C(=O)O)C(=O)O)CC2)CCN(CC(=O)[O-])CC1.[68Ga+3] [^68Ga-HTK03055]
